Data taken from PMC9804781, “Identification of a Novel Pseudo‐Natural Product Type IV IDO1 Inhibitor Chemotype” (Angewandte Chemie (International Ed. in English), 2022).
Where two headings read alike, the source gives them in different places.

Tests used:
Type in all cases: cell-based
Kyn levels in HeLa cells = assay: Manual Kyn assay in HeLa cells (p-DMAB detection); details: IFN-γ, L-Trp, compounds 48 h, p-DMAB, mean n=3 ±SD, read-out: Kyn Assay IC50
Procedure: Mammalian cell lines were maintained at 37°C and 5% CO2 in a humidified atmosphere and sub-cultivated twice a week. All cell lines were tested regularly for mycoplasma contamination and were always free of mycoplasma. BxPC-3 cells (DSMZ#760) were grown in RPMI-1640 medium supplemented with 10% FBS, 2 mM L-glutamine, 1 mM sodium pyruvate, 4.5 g/L glucose, 10 mM HEPES and 1.5 g/L NaHCO3. HeLa cells (DSMZ#57) were cultivated in DMEM supplemented with 10% FBS, 4.5 g/L glucose, 4 mM L-glutamine 1 mM sodium pyruvate, 1% non-essential amino acids, 3.7 g/L NaHCO3. SKOV-3 cells (ATCC#HTB-77) were maintained in modified McCoy’s 5A medium supplemented with 10% FBS, 1.5 mM L-glutamine and 2.2 g/L NaHCO3. […]
For manual testing, BxPC-3, HeLa or SKOV-3 cells (20,000 cells/well, 5,000 cells/well or 6,250 cells/well, respectively) were seeded in 96-well plates (BxPC-3 and HeLa) or 384-well plates (SKOV-3) in medium without phenol red. After 24 h, the IDO1 pathway was induced by addition of 50 ng/mL (BxPC-3 and HeLa) or 17.6 ng/mL IFN-γ (SKOV-3) and 380 µM (BxPC-3), 164.15 µM (HeLa) or 450 µM L-Trp (SKOV-3) with simultaneous treatment with the compounds at the indicated concentrations followed by incubation for 48 h. For the hemin competition assay, hemin was added together with IFN-γ, L-Trp and the compounds. Subsequently, trichloroacetic acid was added to a final concentration of 7% (v/v), the plates were incubated for 15 min at room […]
temperature and centrifuged for 10 min at 1800 x g. Afterwards, an equal volume of freshly prepared 2% (w/v) p-DMAB in glacial acetic acid (Ehrlich reagent) was added prior to measuring the absorbance at 492 nm and 650 nm on the Spark® Multimode Microplate Reader (Tecan, AT).
To determine the Kyn levels, the absorbance of the Kyn-p-DMAB adduct A492 was subtracted by the background absorbance A650 and normalized to the DMSO control. Data analysis was performed using a non-linear regression curve fit and GraphPad Prism 9.0 (GraphPad Software, Inc, US) to generate dose-response curves and obtain IC50 values. […]
Subsequently, 10 mM ascorbic acid, 10 μM methylene blue, 2 mM L-Trp and 100 μg/mL catalase were added and samples were incubated for 60 min at room temperature or 37°C. […]

[1] = tested on: Kyn levels in BxPC-3 cells; assay: Automated (high-throughput) Kyn assay in BxPC-3 cells (Kyn sensor); details: Homo sapiens, BXPC-3; footnote e: value from automated Kyn Assay
Procedure: Mammalian cell lines were maintained at 37°C and 5% CO2 in a humidified atmosphere and sub-cultivated twice a week. All cell lines were tested regularly for mycoplasma contamination and were always free of mycoplasma. BxPC-3 cells (DSMZ#760) were grown in RPMI-1640 medium supplemented with 10% FBS, 2 mM L-glutamine, 1 mM sodium pyruvate, 4.5 g/L glucose, 10 mM […]
HEPES and 1.5 g/L NaHCO3. […]
High-throughput Kyn assay
Automated screening for modulators of Kyn levels in BxPC-3 cells was performed as published earlier.[2] Briefly, BxPC-3 cells (1,000 cells/well) were seeded in black 1536-well plates prior to incubation for 24 h and subsequent treatment with compounds, 380 µM L-Trp and 50 ng/mL IFN-γ for 48 h. Afterwards, trichloroacetic acid was added to a final concentration of 7% (v/v), the plates were incubated for 10 min at 37°C and centrifuged for 10 min at 1620 x g. Kyn was detected by addition of 17.5 µM Kyn sensor[14] in assay buffer (excitation: 535 nm, emission: […]

[2] = tested on: L-Trp uptake in BxPC-3 cells; assay: Trp uptake assay in BxPC-3 cells (HPLC-MS/MS); details: BxPC-3 starved for L-Trp 72 h, ±IFN-γ; 5 mM L-Leu, 1 mM 1-MT, 5 µM compound
Procedure: GraphPad Prism 9.0 (GraphPad Software, Inc, US) to generate dose-response curves and obtain […]
IDO1 promoter reporter gene assay
HEK293T cells (25,000 cells/well) were reverse-transfected with pXPG-IDO1[16] (4 µg/96-well plate, kindly provided by Gina M. Doody, Leeds, UK) and pRL-TK (300 ng/96-well plate, Promega, US) using Lipofectamine™ 2000 (Invitrogen, USA) pri or to incubation for 24 h. Afterwards, cells were treated with 50 ng/mL IFN-γ and the compounds for 48 h. Luminescence generated by the Fluc reporter and the control reporter Rluc was measured using the Dual-Glo ® Luciferase Assay System (Promega, US) on the Spark® Multimode Microplate Reader (Tecan, AT). To determine the IDO1 promoter activity, Fluc signals were divided by Rluc signals and normalized to the values of the DMSO control. Data analysis was performed using a non-linear regression curve fit and […]
BxPC-3 cells (30,000 cells/well) were seeded in 96-well plates in Trp-free RPMI 1640 medium and incubated for 48 h prior addition of 50 ng/mL IFN-γ. Trp starvation was continued for another 24 h. Afterwards, medium was exchanged for Trp-free medium containing the control inhibitors 5 mM L-Leu (inhibitor of system-L amino acid transporters (LAT)), 1 mM 1-methyl-L-tryptophan (inhibitor of tryptophanyl-tRNA synthetase (TrpRS)) and compounds and cells were incubated for 30 min. Subsequently, 50 µM L-Trp was added and samples were incubated for another 30 min.
The supernatant was transferred to a new plate, trichloroacetic acid was added to a final concentration of 7% (v/v) and plates were incubated for 15 min at room temperature. Samples were centrifuged for 10 min at 1800 x g and L-Trp was quantified by HPLC-MS/MS using the LTQ Velos Pro and Dionex HPLC (Thermo Fisher Scientific, US). Data analysis was performed with Xcalibur™ (Thermo Fisher Scientific, US) and repres ented using GraphPad Prism 9.0 (GraphPad […]
RNA purification and RT-qPCR
HeLa cells (250,000 cells/well) were seeded in 6-well plates and incubated for 24 h prior addition of 50 ng/mL IFN-γ and compounds. […]

Structure (SMILES) | IC50 (Kyn levels in HeLa cells; Homo sapiens, HeLa, 48 h) [nM] | further results
CCOC(=O)C1=CC[C@@](C(=O)OC)(c2cc3ccccc3n2C)N(S(=O)(=O)c2ccccc2[N+](=O)[O-])[C@H]1C(=O)OCC [3a^a] | > 10000 | –
CCOC(=O)C1=CC[C@H](c2cc3ccccc3n2C)N(S(=O)(=O)c2ccc(C)cc2)[C@@H]1C(=O)OC(C)(C)C [3e^e] | – | IC50 [1]: 260 ± 50 nM
Cn1cc(C[C@H](N)C(=O)O)c2ccccc21 [Compound 1-MT, 1-methyl-L-tryptophan] | – | uptake (import) of L-Trp [2]: inhibit the uptake
CCOC(=O)C1=CC[C@H](c2cc3ccccc3n2C)N(S(=O)(=O)c2ccccc2[N+](=O)[O-])[C@@H]1C(=O)OC(C)(C)C [Compound 3c] | – | IC50 (Kyn levels in HeLa cells; listed as 3c^b): 480 ± 60 nM; IC50 (Kyn levels in HeLa cells): 1040 ± 80 nM
CCOC(=O)C1=CC[C@](C(=O)OC)(c2cc3ccccc3n2C)N(S(C)(=O)=O)[C@@H]1C(=O)OC(C)(C)C [Compound 3f] | 80 ± 10 | IC50 (Kyn levels in HeLa cells; listed as 3f^bc): 90 ± 10 nM
CCOC(=O)C1=CC[C@](C(=O)OC)(c2cc3ccccc3n2C)N(S(=O)(=O)c2ccccc2)[C@@H]1C(=O)OC(C)(C)C [Compound 3g] | 80 ± 10 | –
CCOC(=O)C1=CC[C@](C(=O)OC)(c2cc3ccccc3n2C)N(S(=O)(=O)c2ccc(Br)cc2)[C@@H]1C(=O)OC(C)(C)C [Compound 3h] | 430 ± 150 | –
CCOC(=O)C1=CC[C@](C(=O)OC)(c2cc3ccccc3n2C)N(S(=O)(=O)c2cccc(C(F)(F)F)c2)[C@@H]1C(=O)OC(C)(C)C [Compound 3i] | 1540 ± 410 | –
CCOC(=O)[C@@H]1C(C(=O)OC(C)(C)C)=CC[C@](C(=O)OC)(c2cc3ccccc3n2C)N1S(=O)(=O)c1ccc(C)cc1 [Compound 3j] | 760 ± 40 | –
CCOC(=O)[C@@H]1C(C(=O)OC(C)(C)C)=CC[C@H](c2cc3ccccc3n2C)N1S(=O)(=O)c1ccc(C)cc1 [Compound 3k] | 1630 ± 160 | –
COC(=O)[C@]1(c2cc3ccccc3n2C)CC=C(C(=O)OCc2ccccc2)[C@@H](C(=O)OC(C)(C)C)N1S(=O)(=O)c1ccccc1[N+](=O)[O-] [Compound 3l] | – | IC50 (Kyn levels in HeLa cells; listed as 3l^a): 2880 ± 130 nM; IC50 (Kyn levels in HeLa cells): 1390 ± 90 nM
COC(=O)[C@]1(c2cc3ccccc3n2C)CC=C(C(=O)OC(C)(C)C)[C@@H](C(=O)OC(C)(C)C)N1S(=O)(=O)c1ccccc1[N+](=O)[O-] [Compound 3o] | – | IC50 (Kyn levels in HeLa cells; listed as 3o^a): 820 ± 700 nM; IC50 (Kyn levels in HeLa cells; listed as 3o^b): 160 ± 50 nM; IC50 (Kyn levels in HeLa cells): 650 ± 80 nM
CC(C)C[C@H](N)C(=O)O [L-Leu, L-leucine] | – | uptake (import) of L-Trp [2]: inhibit the uptake

Continued, in another order:

IC50 (Kyn levels in HeLa cells; Homo sapiens, HeLa, 48 h) [nM] | Structure (SMILES) | further results
2460 ± 290 | CCOC(=O)[C@@H]1C(C(=O)OC(C)(C)C)=CC[C@](C(=O)OC)(c2cc3ccccc3n2C)N1S(=O)(=O)c1ccccc1[N+](=O)[O-] [Compound 3m] | –
7520 ± 800 | CCOC(=O)C1=CC[C@](C(=O)OC)(c2cc3ccccc3n2C)N(S(=O)(=O)c2ccccc2[N+](=O)[O-])[C@@H]1C(=O)OCc1ccccc1 [Compound 3n] | –
1650 ± 230 | COC(=O)[C@]1(c2cc3ccccc3n2C)CC=C(C(=O)OCc2ccccc2)[C@@H](C(=O)OC(C)(C)C)N1S(=O)(=O)c1ccc(C)cc1 [Compound 3p] | –
110 ± 20 | CCOC(=O)C1=CC[C@](C(=O)OC)(c2cc3ccccc3n2C)N(S(=O)(=O)c2ccc(F)cc2)[C@@H]1C(=O)OC(C)(C)C [Compound 3q] | –
890 ± 190 | Cn1c([C@H]2CC=C(C(=O)OCc3ccccc3)[C@@H](C(=O)OC(C)(C)C)N2S(=O)(=O)c2ccccc2[N+](=O)[O-])cc2ccccc21 [Compound 3r] | –
